Measurements from US11161856B2 (H. Lundbeck A/S, priority 2017, dated 2021).
pIC50: −log10 of the molar value.

Assays:
Assay type in all cases: biochemical
MAGL = target: T1, MAGL (Homo sapiens, UniProt Q99685); test: In vitro competitive activity-based protein profiling (FP-Rh or HT-01 probe, gel-based); settings: for % Inh MGLL PFC (Human, μM): prefrontal cortex (PFC) proteome
T1 construct: Proteomes (human prefrontal cortex or cell membrane fractions); from tissue
T1 sequence (Q99685 1-303): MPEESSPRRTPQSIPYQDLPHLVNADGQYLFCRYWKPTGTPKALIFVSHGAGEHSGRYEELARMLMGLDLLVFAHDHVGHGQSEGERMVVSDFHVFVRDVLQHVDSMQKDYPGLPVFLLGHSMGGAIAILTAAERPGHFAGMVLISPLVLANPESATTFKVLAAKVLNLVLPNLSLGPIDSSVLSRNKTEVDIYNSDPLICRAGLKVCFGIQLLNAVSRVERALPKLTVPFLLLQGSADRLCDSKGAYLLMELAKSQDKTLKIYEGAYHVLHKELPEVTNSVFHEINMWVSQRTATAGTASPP
Summary of the method: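 Human prefrontal cortex or cell membrane proteomes (1.0 mg/mL total protein) were preincubated with varying inhibitor concentrations for 30 min at 37° C. FP-Rh or HT-01 probe (50 μM DMSO stock) was then added for 30 min at room temperature, and samples were quenched in SDS loading buffer and resolved by SDS-PAGE.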

MGLL = target: T2, MGLL (Mus musculus, UniProt O35678); test: In vitro competitive activity-based protein profiling, mouse brain proteome (MGLL); settings: concentration not given (μM)
T2 construct: Brain; from tissue; host or cells: mouse brain proteome
T2 sequence (O35678 1-303): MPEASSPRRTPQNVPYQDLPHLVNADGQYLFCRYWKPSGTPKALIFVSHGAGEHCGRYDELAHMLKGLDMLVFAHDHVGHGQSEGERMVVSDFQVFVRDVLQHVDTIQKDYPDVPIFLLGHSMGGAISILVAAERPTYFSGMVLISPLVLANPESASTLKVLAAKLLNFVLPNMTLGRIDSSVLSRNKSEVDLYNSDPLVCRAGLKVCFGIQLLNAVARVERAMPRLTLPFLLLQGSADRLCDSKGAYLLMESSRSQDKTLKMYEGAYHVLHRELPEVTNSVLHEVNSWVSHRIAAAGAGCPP

ABHD6 = target: T3, ABHD6 (Mus musculus, UniProt Q8R2Y0); test: In vitro competitive activity-based protein profiling, mouse brain proteome (ABHD6); settings: mouse brain proteome; concentration not given (μM)
T3 construct: Brain; from tissue; host or cells: mouse brain proteome
T3 sequence (Q8R2Y0 1-336): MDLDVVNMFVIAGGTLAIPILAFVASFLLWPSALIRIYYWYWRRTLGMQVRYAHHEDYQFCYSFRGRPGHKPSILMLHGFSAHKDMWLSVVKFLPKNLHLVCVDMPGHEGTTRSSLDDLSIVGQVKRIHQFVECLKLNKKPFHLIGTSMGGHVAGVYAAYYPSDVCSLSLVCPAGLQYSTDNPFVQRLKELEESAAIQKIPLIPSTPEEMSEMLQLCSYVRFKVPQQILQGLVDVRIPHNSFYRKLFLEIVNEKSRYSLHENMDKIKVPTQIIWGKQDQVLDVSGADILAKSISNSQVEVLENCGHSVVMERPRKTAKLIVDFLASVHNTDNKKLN
Method: [The source words this procedure for another target and reports this target under the same test.] In Vitro Competitive Activity-Based Protein Profiling.
Proteomes (human prefrontal cortex or cell membrane fractions) (50 μL, 1.0 mg/mL total protein concentration) were preincubated with varying concentrations of inhibitors at 37° C. After 30 min, FP-Rh or HT-01 (1.0 μL, 50 μM in DMSO) was added and the mixture was incubated for another 30 min at room temperature. Reactions were quenched with SDS loading buffer (15 μL-4×) and run on SDS-PAGE.

% Inh MGLL PFC (Human, μM) (MAGL; concentration not given (μM)) | % Inh MGLL Brain (Mouse, μM) (MGLL) | % Inh ABHD6 Brain (Mouse, μM) (ABHD6) | % Inh MGLL PC3 (Human, μM) (MAGL; PC3 cell proteome, concentration not given (μM)) | pIC50 (MAGL; PC3 cell proteome, read-out: IC50 MGLL PC3 (Human)) | Compound
### (### is ≥75%) | ### (### is ≥75%) | ## (## is between 25 and 75%) |  |  | O=C(O)C1CCN(c2cc(F)cc(CN3CC4(CCN(C(=O)OC(C(F)(F)F)C(F)(F)F)CC4)C3)c2)CC1 [Example 117, 1-(3-Fluoro-5-((7-(((1,1,1,3,3,3-hexafluoropropan-2-yl)oxy)carbonyl)-2,7-diazaspiro[3.5]nonan-2-yl)methyl)phenyl)piperidine-4-carboxylic acid]
### (### is ≥75%) | ### (### is ≥75%) | ### (### is ≥75%) |  |  | O=C(OC(C(F)(F)F)C(F)(F)F)N1CCC2(CC1)CCN(C(=O)c1ccc(C(F)(F)F)cc1Cl)C2 [Example 119, 1,1,1,3,3,3-Hexafluoropropan-2-yl 2-(2-chloro-4-(trifluoromethyl)benzoyl)-2,8-diazaspiro[4.5]decane-8-carboxylate]
### (### is ≥75%) | ### (### is ≥75%) | ### (### is ≥75%) |  |  | O=C(O)C1CCCCN1c1cc(CN2CC3(CCN(C(=O)OC(C(F)(F)F)C(F)(F)F)CC3)C2)cc(C(F)(F)F)c1 (stereo not drawn) [Example 120, l-(3-((7-(((1,1,1,3,3,3-Hexafluoropropan-2-yl)oxy)carbonyl)-2,7-diazaspiro[3,5]nonan-2-yl)methyl)-5-(trifluoromethyl)phenvl)piperidine-2-carboxylic acid]
### (### is ≥75%) | ### (### is ≥75%) | ### (### is ≥75%) |  |  | CC1(C(=O)O)CCN(c2cc(CN3CC4(CCN(C(=O)OC(C(F)(F)F)C(F)(F)F)CC4)C3)cc(C(F)(F)F)c2)C1 (stereo not drawn) [Example 121, l-(3-((7-(((1,1,1,3,3,3-Hexafluoropropan-2-yl)oxy)carbonyl)-2,7-diazaspiro[3.5]nonan-2-yl)methyl)-5-(trifluoromethyl)phenyl)-3-methylpyrrolidine-3-carboxylic acid]
### (### is ≥75%) | ### (### is ≥75%) | # (# is ≤25%) |  |  | O=C(O)C1CCN(c2cc(Cl)ccc2CN2CC3(CCN(C(=O)OC(C(F)(F)F)C(F)(F)F)CC3)C2)CC1 [Example 122, l-(5-Chloro-2-((7-(((1,1,1,3,3,3-hexafluoropropan-2-yl)oxy)carbonyl)-2,7-diazaspiro[3.5]nonan-2-yl)methyl)phenyl)piperidine-4-carboxylic acid]
### (### is ≥75%) | ### (### is ≥75%) | # (# is ≤25%) |  |  | O=C(O)C1CCN(c2cc(F)ccc2CN2CC3(CCN(C(=O)OC(C(F)(F)F)C(F)(F)F)CC3)C2)CC1 [Example 123, l-(5-Fluoro-2-((7-(((1,1,1,3,3,3-hexafluoropropan-2-yl)oxy)carbonyl)-2,7-diazaspiro[3,5]nonan-2-yl)methyl)phenyl)piperidine-4-carboxylic acid]
### (### is ≥75%) | ### (### is ≥75%) | # (# is ≤25%) |  |  | CC1(N(CC(=O)O)Cc2ccc(C(F)(F)F)cc2N2CCOCC2)CCN(C(=O)OC(C(F)(F)F)C(F)(F)F)CC1 [Example 124, N-(1-(((1,1,1,3,3,3-Hexafluoropropan-2-yl)oxy)cart>onyl)-4-methylpiperidin-4-yl)-N-(2-morpholino-4-(trifluoromethyl)benzyl) glycine]
### (### is ≥75%) | ### (### is ≥75%) | ### (### is ≥75%) |  |  | O=C(O)CN1CC2CC1CN2c1cc(CN2CCC3(CCN(C(=O)OC(C(F)(F)F)C(F)(F)F)CC3)C2)cc(C(F)(F)F)c1 (centres unmarked) [Example 125, 2-(5-{3-[(8-{[(1,1,1,3,3,3-Hexafluoropropan-2-yl)oxy]carbonvl}-2,8-diazaspiro[4.5]decan-2-yl)methyl]-5-(trifluoromethyl)phenyl}-2,5-diazabicyclo[2.2.1]heptan-2-yl)acetic acid]
### (### is ≥75%) | ### (### is ≥75%) | # (# is ≤25%) |  |  | O=C(O)CN1CC2CC1CN2c1cc(C(F)(F)F)ccc1CN1CCCC12CCN(C(=O)OC(C(F)(F)F)C(F)(F)F)CC2 (centres unmarked) [Example 126, 2-(5-{2-[(8-{[(1,1,1,3,3,3-Hexafluoropropan-2-yl)oxy]carbonyl}-1,8-diazaspiro[4.5]decan-1-yl)methyl]-5-(trifluoromethyl)phenyl}-2,5-diazabicyclo[2.2.1]heptan-2-yl)acetic acid]
### (### is ≥75%) | ### (### is ≥75%) | ### (### is ≥75%) |  |  | O=C(O)CN1CC2CC1CN2c1cc(C(F)(F)F)ccc1CN1CC2(CCN(C(=O)OC(C(F)(F)F)C(F)(F)F)CC2)C1 (centres unmarked) [Example 127, 2-(5-{2-[(7-{[(1,1,1,3,3,3-Hexafluoropropan-2-yl)oxy]carbonyl}-2,7-diazaspiro[3.5]nonan-2-yl)methyl]-5-(trifluoromethyl)phenyl}-2,5-diazabicyclo[2.2.1]heptan-2-yl)acetic acid]
### (### is ≥75%) | ### (### is ≥75%) | # (# is ≤25%) |  |  | O=C(O)CN1CC2CC1CN2c1cc(CN2CCCC23CCN(C(=O)OC(C(F)(F)F)C(F)(F)F)CC3)cc(C(F)(F)F)c1 (centres unmarked) [Example 128, 2-(5-{3-[(8-{[(1,1,1,3,3,3-Hexafluoropropan-2-yl)oxy]carbonyl}-1,8-diazaspiro[4.5]decan-1-yl)methyl]-5-(trifluoromethyl)phenyl}-2,5-diazabicyclo[2.2.1]heptan-2-yl)acetic acid]
## (## is between 25 and 75%) | ### (### is ≥75%) | ### (### is ≥75%) |  |  | O=C(O)CN1CC2CC1CN2c1cc(CN2CC3(CCN(C(=O)OC(C(F)(F)F)C(F)(F)F)CC3)C2)cc(C(F)(F)F)c1 (centres unmarked) [Example 129, 2-(5-{3-[(7-{[(U,l,3,3,3-Hexafluoropropan-2-yl)oxy]carbonyl}-2,7-diazaspiro[3.5]nonan-2-yl)methyl]-5-(trifluoromethyl)phenyl}-2,5-diazabicyclo[2.2.1]heptan-2-yl)acetic acid]
### (### is ≥75%) | ### (### is ≥75%) | # (# is ≤25%) |  |  | CC1(C(=O)O)CN(c2cc(C(F)(F)F)ccc2CN2CC3(CCN(C(=O)OC(C(F)(F)F)C(F)(F)F)CC3)C2)CCO1 (centres unmarked) [Example 130, 4-(2-((7-(((1,1,1,3,3,3-Hexafluoropropan-2-yl)oxy)carbonyl)-2,7-diazaspiro[3.5]nonan-2-yl)methyl)-5-(trifluoromethyl)phenyl)-2-methylmorpholine-2-carboxylic acid]
### (### is ≥75%) | ## (## is between 25 and 75%) | ### (### is ≥75%) |  |  | O=C(O)c1ccc(CN2CC3(CCN(C(=O)OC(C(F)(F)F)C(F)(F)F)CC3)C2)cc1C(F)(F)F [Example 131, 4-((7-(((1,1,1,3,3,3-Hexafluoropropan-2-yl)oxy)carbonyl)-2,7-diazaspiro[3,5]nonan-2-yl)methyl)-2-(trifluoromethyl)benzoic acid]
### (### is ≥75%) | ### (### is ≥75%) | # (# is ≤25%) | ### (### is ≥75%) | 6.00 to 7.00 | CN(Cc1ccc(C(F)(F)F)cc1N1CCC[C@H]1C(=O)O)C1(C)CCN(C(=O)OC(C(F)(F)F)C(F)(F)F)CC1 [Example 132, (2-(((1-(((1,U, 3,3,3-Hexafluoropropan-2-yl)oxy)carbonyl)-4-methylpiperidin-4-yl)(methyl)amino)methyl)-5-(trifluoromethyl)phenyl)proline]
